Assay results taken from patent publication US4868203A, “Bacterial substance and pharmaceutical composition thereof” (Kabushikikaisha Ueno Seiyaku Oyo Kenkyujo, priority 1986, dated 1989).
≈ marks a conversion by molar mass, not a printed value.

Columns and labels:
Pasteurella piscicida = experiment: microbe, parasite or virus in culture; format: cell-based; conditions: Photobacterium damselae
[1] = Storage life of kamaboko, rot-proof property (Test Example 4); conditions: 0.2%, pH 6.58, 30° C.
Experimental: Fish paste was prepared by adding NaCl (2.5%), chemical seasoning (0.8%), starch (5%) and ice water (10%) based on frozen surimi of walleye pollack (4 kg) and cutting by a silent cutter for 10 minutes. Predetermined amount of bacterial substance UFC-N11 based on the resulting fish paste (2 kg) was added and completely mixed in a small mixer for 5 minutes. About 100 g fish paste were enclosed with polyvinylidene chloride film (spread width:45 mm), boiled at 90° C. for 30 minutes, quenched, left overnight and then tested for rot-proof property.
The test was conducted as follows. As the complete package products, 10 pieces/group of kamaboko processed by casing method samples and, as the simplified package products, 10 pieces/group prepared by peeling off the casing under sterilized condition, cutting into 2 round slices (thickness: 10 mm) by a sterilized knife and placing in a sterilized plastic Petri dish. were placed in a thermostatic chamber at 30° C. and evaluated by macroscopically observation. The evaluation uses five-level scale shown below. The period until the average evaluation value of 1 is attained is defined as the storage life.

[2] = system: Xanthomonas campestris PV citri

Compound: CC1(C)S[C@@H]2[C@H](NC(=O)[C@H](N)c3ccccc3)C(=O)N2[C@H]1C(=O)O [Ampicillin]
- MIC (Pasteurella piscicida; strain AT-1): > 10 µg/mL
- MIC (Pasteurella piscicida; strain AT-17): > 10 µg/mL
- MIC (Pasteurella piscicida; strain KGP86041): 0.039 µg/mL (≈ 0.112 µM)
- MIC (Pasteurella piscicida; strain MEP35): 0.039 µg/mL (≈ 0.112 µM)
- MIC (Pasteurella piscicida; strain MEP151): > 10 µg/mL
- MIC (Pasteurella piscicida; strain MS86115): 0.039 µg/mL (≈ 0.112 µM)
- MIC (Pasteurella piscicida; strain MS86169): > 10 µg/mL
- MIC (Pasteurella piscicida; strain SP6275): 0.039 µg/mL (≈ 0.112 µM)
- MIC (Pasteurella piscicida; strain SP6291): > 10 µg/mL
- MIC (Pasteurella piscicida; strain WP96): 0.078 µg/mL (≈ 0.223 µM)

Compound: O=C(O)c1ccc(/C=C/c2ccc([N+](=O)[O-])o2)cc1 [Nifurstyrenic acid]
- MIC (Pasteurella piscicida; strain AT-1): 1.25 µg/mL (≈ 4.82 µM)
- MIC (Pasteurella piscicida; strain AT-17): 0.31 µg/mL (≈ 1.2 µM)
- MIC (Pasteurella piscicida; strain KGP86041): 2.5 µg/mL (≈ 9.64 µM)
- MIC (Pasteurella piscicida; strain MEP35): 2.5 µg/mL (≈ 9.64 µM)
- MIC (Pasteurella piscicida; strain MEP151): 0.31 µg/mL (≈ 1.2 µM)
- MIC (Pasteurella piscicida; strain MS86115): 0.31 µg/mL (≈ 1.2 µM)
- MIC (Pasteurella piscicida; strain MS86169): 2.5 µg/mL (≈ 9.64 µM)
- MIC (Pasteurella piscicida; strain SP6275): 0.63 µg/mL (≈ 2.43 µM)
- MIC (Pasteurella piscicida; strain SP6291): 0.16 µg/mL (≈ 0.617 µM)
- MIC (Pasteurella piscicida; strain WP96): 0.31 µg/mL (≈ 1.2 µM)

Compound: CCn1cc(C(=O)O)c(=O)c2cc3c(cc21)OCO3 [Oxolinic acid]
- MIC (Pasteurella piscicida; strain AT-1): 1.25 µg/mL (≈ 4.79 µM)
- MIC (Pasteurella piscicida; strain AT-17): 1.25 µg/mL (≈ 4.79 µM)
- MIC (Pasteurella piscicida; strain KGP86041): 0.078 µg/mL (≈ 0.299 µM)
- MIC (Pasteurella piscicida; strain MEP35): 1.25 µg/mL (≈ 4.79 µM)
- MIC (Pasteurella piscicida; strain MEP151): 1.25 µg/mL (≈ 4.79 µM)
- MIC (Pasteurella piscicida; strain MS86115): 1.25 µg/mL (≈ 4.79 µM)
- MIC (Pasteurella piscicida; strain MS86169): 0.078 µg/mL (≈ 0.299 µM)
- MIC (Pasteurella piscicida; strain SP6275): 1.25 µg/mL (≈ 4.79 µM)
- MIC (Pasteurella piscicida; strain SP6291): 0.039 µg/mL (≈ 0.149 µM)
- MIC (Pasteurella piscicida; strain WP96): 0.039 µg/mL (≈ 0.149 µM)

Compound: C/C=C/C=C/C(=O)O [Sorbic acid, reference compound]
- Storage life, Complete package [1]: 12.0 days
- Storage life, simplified package [1]: 7.0 days

Compound: [H]/N=C(/N)N[C@H]1[C@H](O)[C@@H](O)[C@H](O[C@@H]2O[C@@H](C)[C@](O)(C=O)[C@H]2O[C@@H]2O[C@@H](CO)[C@H](O)[C@@H](O)[C@@H]2NC)[C@@H](N/C(N)=N\[H])[C@@H]1O [Streptomycin, reference compound]
- Prevention ([2]; Streptomycin, concentration printed as 0 ppm, 14 days): 30.3%
- Damage ([2]; in vivo): nil
